This passage reports melting point results from a melting point compilation (Tetko et al.).

With `NC(=O)CCc1nnc(S)n1Cc1ccco1`, the melting point lay in the range of 204 to 206 °C. Consider `CCN(CC)S(=O)(=O)c1ccc(C)c(N)c1`, for which the melting point is 108 to 112 °C. The compound `O=C(O)C1CCCc2ccccc21` (centres undefined) yielded a melting point of 84 to 86 °C. `OC(c1ccc[nH]1)C(F)(F)F` (centres undefined) registered a melting point of 47 to 49 °C. In turn, `CC(=O)c1ccc2c3c(cccc13)CC2` gave a melting point of 58 to 60 °C. On to `COc1ccc(C=O)cc1OCC(N)=O`, for which the melting point was 136 to 138 °C.

Consider `COC(=O)c1sccc1O`, for which the melting point was in the range of 49 to 51 °C. `O=Cc1cn(-c2ccccc2)nc1-c1ccncc1` registered a melting point of 153 to 155 °C. In turn, `OC1CCc2c(OCc3ccccc3)cccc21` (centres undefined) came in with a melting point of 86 to 88 °C.

The compound `COc1ccc2c(-c3cccnc3)cc(S)nc2c1` registered a melting point of 269 to 271 °C. On to `Cc1ccc(S(=O)(=O)N2Cc3ccccc3CC2C(=O)O)cc1` (centres undefined), for which the melting point was 143 to 145 °C. The compound `Cc1n[nH]c(C)c1CCO` registered a melting point of 122 to 124 °C.

The compound `Cc1cc(C)nc(-n2nc(C)cc2N)n1` gave a melting point of 173 to 175 °C. Turning to `NNC(=O)c1cccc(S(=O)(=O)Nc2ccc(Cl)cc2)c1`, the melting point fell in the range of 191 to 193 °C. The compound `CC(CC(=O)O)NS(=O)(=O)c1cccnc1Cl` (centres undefined) gave a melting point of 144 to 146 °C. As for `O=C(O)c1cccc(NC(=O)C2CCCCC2)c1`, the figure is 228 to 230 °C; as for `CCOC(=O)c1cc(Br)cc(Cl)c1N`, 49 to 51 °C; as for `COC(=O)C1CCN(c2nccc3sccc23)CC1`, 83 to 85 °C.

`O=C1NC(=O)C2(CCCN(Cc3ccccc3)C2)N1` (centres undefined) showed a melting point of 209 to 211 °C.

`Cc1c(C(N)=O)cccc1[N+](=O)[O-]` yielded a melting point of 163 to 165 °C.

Take `NC(=O)c1cc2ccccc2c(Cl)n1`: the melting point lay within 264 to 266 °C.

Compound `CCOC(=O)c1sc2nc(CN3CCOCC3)nc(Cl)c2c1C` came in with a melting point of 110 to 112 °C.

`COc1ccc(NC(=O)c2ccc(C(=O)O)s2)cc1` came in with a melting point of 247 to 249 °C. `C=CC(=O)NC(=O)NC12CC3CC(CC(C3)C1)C2` showed a melting point of 211 to 213 °C. `Nc1cccc(S(=O)(=O)Nc2ccc(Cl)cc2)c1`: the melting point lay within 127 to 129 °C. `O=C(O)CNS(=O)(=O)c1ccc(Cl)cc1` had a melting point of 177 to 179 °C.

Regarding `N#CCc1nc(N)nc(N)n1`, the melting point lay within 280 to 282 °C.

The compound `O=C1Cc2ccc(Br)cc2N1` returned a melting point of 216 to 220 °C. To `COCCOc1ccc(Cl)cc1S(N)(=O)=O` belongs 124 to 126 °C; to `COc1ccc(C2CCCCC2=O)cc1F` (centres undefined), 78 to 80 °C. As for `CS(=O)(=O)c1cc(Br)ccc1[N+](=O)[O-]`, the melting point lay in the range of 152 to 154 °C. As for `Cc1onc(-c2cccc(Br)c2)c1C(=O)O`, the figure is 169 to 171 °C.

As for `Cc1cc(Cl)n(-c2ccc(C#N)cc2)n1`, the melting point was in the range of 103 to 105 °C. To `O=C(O)c1cc(S(=O)(=O)Cl)cs1` belongs 139 to 141 °C; to `CCOC=C1C(=O)N(c2cccc(Cl)c2)C(=O)c2ccccc21`, 205 to 209 °C. To `Cc1nnc(-c2cccc(C#N)c2)[nH]1` belongs 173 to 175 °C; to `Cc1ccc(-c2nc(N)sc2C)s1`, 127 to 129 °C; to `Cc1nn2c(CO)c(C(C)C)nc2s1`, 119 to 121 °C. In turn, `CCC(C)NC(=O)c1ccc(N)cc1` (centres undefined) returned a melting point of 101 to 104 °C.

`CC1CC(C)CN(S(=O)(=O)c2cccc(C(=O)O)c2)C1` (centres undefined) showed a melting point of 217 to 219 °C.

In turn, `COc1ccc(CC2(C)NC(=O)NC2=O)cc1` (centres undefined) displayed a melting point of 196 to 198 °C.

`O=C(O)C1CC1c1ccco1` (centres undefined) had a melting point of 51 to 53 °C. In turn, `Cc1csc(-c2cccc(C(=O)O)c2)n1` gave a melting point of 192 to 194 °C. In turn, `CS(=O)(=O)c1ccc(Oc2ccc(N)cc2)cc1` came in with a melting point of 152 to 154 °C. With `CC(Cl)c1nnc(-c2ccc([N+](=O)[O-])cc2)o1` (centres undefined), the melting point lay within 161 to 163 °C. Regarding `NNS(=O)(=O)c1ccc(Cl)c([N+](=O)[O-])c1`, the melting point lay in the range of 126 to 128 °C. As for `COc1ccc(Cl)cc1-c1cc(N)[nH]n1`, the figure is 126 to 128 °C; as for `Cc1cccc(-n2nnnc2S)c1`, 156 to 158 °C. In the case of `NC(=O)NCCCCC(=O)O`, the melting point was in the range of 178 to 180 °C. With `O=C(O)c1occc1CSc1ccccc1`, the melting point was 114 to 116 °C.

On to `CC(=O)CC(=O)Nc1cccc(F)c1`, for which the melting point was in the range of 81 to 83 °C. As for `Nc1cccc(C(=O)Nc2ccc(Br)cn2)c1`, the figure is 153 to 155 °C; as for `Nc1ncn(Cc2cccc(Br)c2)n1`, 147 to 149 °C. Turning to `CCOC(=O)c1cc(C#N)c(SCC(=O)O)[nH]c1=O`, the melting point was in the range of 195 to 197 °C. `Fc1ccc(-c2ccn[nH]2)cc1Cl` registered a melting point of 109 to 111 °C. In the case of `CC1C(=O)NC(=O)N1c1ccc(F)cc1` (centres undefined), the melting point lay within 187 to 189 °C. To `O=Cc1cnn2ccccc12` belongs 82 to 84 °C; to `COc1ccccc1C=NO`, 86 to 88 °C; to `CC(C)NS(=O)(=O)c1cccc(CN)c1`, 98 to 100 °C. The compound `CN(CC(=O)O)S(=O)(=O)c1cccs1` yielded a melting point of 152 to 156 °C. To `CC(=O)Nc1ccc(S(=O)(=O)NCCC(=O)O)cc1` belongs 160 to 162 °C. To `C=CCNC(=O)c1cccc(S(=O)(=O)Cl)c1` belongs 62 to 64 °C; to `NS(=O)(=O)c1cccc(O)c1`, 159 to 161 °C; to `FC(F)(F)c1nc(Cl)c2cc(Br)ccc2n1`, 101 to 103 °C. Compound `NCc1ccc(-n2cnc3ccccc32)cc1` yielded a melting point of 72 to 74 °C.

For `Cn1ccnc1C(O)(CC(=O)O)C(F)(F)F` (centres undefined), the melting point fell in the range of 186 to 188 °C. To `Nc1cnn(-c2ccccc2)c1` belongs 95 to 97 °C; to `O=C(CCl)NCc1ccccc1S(=O)(=O)N1CCCCC1`, 89 to 91 °C; to `O=C(Cc1ccc(F)cc1)N1CCNCC1`, 65 to 67 °C. In turn, `Cc1nc(N)sc1Cc1cccc(Cl)c1` gave a melting point of 74 to 76 °C.

`O=C1C(Br)CCCN1c1ccccc1Cl` (centres undefined): the melting point is 108 to 110 °C. The compound `O=[N+]([O-])c1ccc(OCc2ccccc2)cc1` yielded a melting point of 92 to 94 °C. To `Cc1cn2cc(Br)cc(C)c2n1` belongs 109 to 111 °C. Turning to `Nc1n[nH]c(=O)[nH]c1=O`, the melting point is 334 to 336 °C. To `Nc1cc(S(=O)(=O)Nc2ccccc2Cl)ccc1O` belongs 195 to 197 °C. With `Cc1nc(COc2ccc(C=O)cc2)no1`, the melting point fell in the range of 57 to 59 °C. In turn, `Cc1ccc(S(=O)(=O)N(C)c2ccc(OCC(=O)O)cc2)cc1` displayed a melting point of 152 to 154 °C. The compound `O=C(O)c1csc(C(=O)CCl)c1` registered a melting point of 147 to 149 °C. For `CC(C)(C)c1nc(C#N)c(NN)o1`, the melting point lay in the range of 164 to 166 °C. The compound `Nc1c(C(=O)O)ccc2cccnc12` came in with a melting point of 207 to 209 °C.

`Nc1nonc1-c1cccc(Cl)c1` yielded a melting point of 133 to 135 °C.

In turn, `Nc1c(Br)cc(Cl)cc1C(=O)O` had a melting point of 232 to 234 °C.

For the compound `NC(=O)c1sc2nc(C3CC3)cc(-c3ccccc3)c2c1N`, the melting point fell in the range of 185 to 187 °C. As to `N#Cc1ccc2nccnc2c1`, the melting point fell in the range of 179 to 181 °C.

`Nc1ccc(F)c(NS(=O)(=O)c2ccccc2)c1` came in with a melting point of 143 to 145 °C. Consider `O=C(O)c1ccc(-n2cc(Br)cn2)cc1`, for which the melting point is 273 to 275 °C. To `CN1C(=O)c2cccc(N)c2C1=O` belongs 199 to 201 °C. As to `COc1cc(F)cc(C(=O)O)c1N`, the melting point lay in the range of 211 to 213 °C. `Cc1ccc(S(=O)(=O)C(C#N)c2nc3ccccc3nc2Cl)cc1` (centres undefined) gave a melting point of 105 to 107 °C.

`Nc1nc2ccc(C(F)(F)F)cc2[nH]1`: the melting point lay within 134 to 136 °C. To `CC(=O)c1ccc(-n2cncn2)cc1` belongs 111 to 124 °C; to `CC1CC(=O)NC1=O` (centres undefined), 61 to 63 °C; to `CC(C)(C)OC(=O)N1CCN(CCS(N)(=O)=O)CC1`, 138 to 140 °C. Regarding `COc1ccccc1CC(C)=CC(=O)O`, the melting point was in the range of 96 to 98 °C. `Cc1ccc2ncccc2c1Br` returned a melting point of 44 to 46 °C. `COc1ccc(-c2noc(CCC(=O)O)n2)cc1` gave a melting point of 141 to 143 °C. `Cc1cc(CN2CCNCC2)no1`: the melting point lay within 59 to 71 °C. The compound `O=c1[nH]c(=O)c2cc(S(=O)(=O)Cl)ccc2[nH]1` registered a melting point of 272 to 274 °C. As for `Cc1cccc(Cl)c1OCC(=O)O`, the figure is 99 to 101 °C; as for `N#Cc1ccc(S(=O)(=O)Cl)c(F)c1`, 61 to 63 °C.

Consider `COc1ccc(CCl)cc1C#N`, for which the melting point lay within 99 to 101 °C. In turn, `NCc1ccc(NC(=O)C(F)(F)F)cc1` showed a melting point of 106 to 108 °C.

`NC(=O)Cn1cc(N)cn1` had a melting point of 159 to 161 °C. `COC(=O)C(Cl)c1cc(Cl)cc(Cl)c1` (centres undefined) showed a melting point of 56 to 58 °C. As to `COc1ccc2cncnc2c1`, the melting point is 83 to 85 °C. The compound `CN(CC(=O)O)c1ccccc1[N+](=O)[O-]` returned a melting point of 69 to 71 °C. The compound `Nc1sc2c(c1C(=O)c1ccccc1)CCCC2` gave a melting point of 123 to 127 °C.

`CC(NC(=O)C(Br)C(C)C)c1ccccc1` (centres undefined) showed a melting point of 73 to 75 °C. As for `CCc1nc(C(=O)O)nn1-c1c(Cl)cccc1Cl`, the figure is 197 to 199 °C; as for `Cc1cc(O)cc(=O)n1CC(=O)O`, 248 to 250 °C; as for `COC(=O)COc1ccc(C(=O)O)cc1OC`, 170 to 172 °C. As for `Clc1ncnc2ccc(I)cc12`, the figure is 173 to 175 °C; as for `COC(=O)c1cccc(S(N)(=O)=O)c1`, 131 to 133 °C; as for `NCCc1nc2ccccc2[nH]1`, 215 to 230 °C. Turning to `Nc1ccc(-c2csc(N3CCOCC3)n2)cc1`, the melting point was in the range of 174 to 176 °C. In the case of `COC(=O)/C=C/c1cc(OC)c(OC)c(S(=O)(=O)Cl)c1`, the melting point lay in the range of 160 to 162 °C. Regarding `COc1cccc(/C=C/C(=O)O)c1OC(F)F`, the melting point fell in the range of 208 to 210 °C. The compound `Cc1cc(CSc2ncccc2C(=O)O)no1` registered a melting point of 169 to 171 °C. In the case of `CCNC(=O)N1CCc2c(cccc2-n2nnc(C(=O)O)c2C)C1`, the melting point fell in the range of 200 to 202 °C.

Usually melting point stands for the temperature of the solid-liquid transition.
